test system: EAAT2; assay: EAAT2 Cellular Assay: EAAT2 protein levels in PA-EAAT2 cells by Western blot; assay type: cell-based, human; settings: 0.25 μM (concentration that reaches maximum activity), 24 hr, relative to DMSO controls
Procedure: All of the compounds were initially evaluated in PA-EAAT2 cells, a primary astrocyte stably expressing human EAAT2 mRNAs (Kong et al., J Clin Invest. 2014:1255-67). Cells were treated with compound at 0.25 μM, 0.5 μM, 1 μM, 2.5 μM, 5 μM, 10 μM, and 25 μM for 24 hr and then harvested for measuring EAAT2 protein levels by Western blot analysis.

Row | SMILES | Fold increase for EAAT2 at indicated concentration (maximum activity)
1 | O=S(=O)(Nc1ccc(-c2ccccn2)nn1)c1ccccc1F | 2.6 ± 0.2 (0.25 μM) fold
2 | O=C(Nc1ccc(-c2ccccn2)nn1)c1cc(F)ccn1 | 1.7 ± 0.1 (0.25 μM) fold
3 | O=C(Nc1ccc(-c2ccccn2)nn1)c1ccc(F)cn1 | 1.9 ± 0.2 (0.25 μM) fold
4 | O=C(Nc1ccc(-c2ccccn2)nn1)c1cccc(F)n1 | 1.6 ± 0.1 (0.25 μM) fold
5 | O=C(Nc1ccc(-c2ccccn2)nn1)c1ccc(F)c(Cl)c1 | 2.2 ± 0.4 (0.25 μM) fold
6 | O=C(Nc1ccc(-c2ccccn2)nn1)c1ccc(F)cc1 [drawing 110] | 2.5 ± 0.3 (0.25 μM) fold
7 | CNC(=O)COc1ccc(-c2ccccn2)nn1 [drawing 129] | 2.3 ± 0.1 (0.25 μM) fold

same assay, conditions: 0.5 μM (concentration that reaches maximum activity), 24 hr, relative to DMSO controls

Row | SMILES | Fold increase for EAAT2 at indicated concentration (maximum activity)
8 | O=S(=O)(Nc1ccc(-c2ccccn2)nn1)c1ccc(F)cc1 | 2.4 ± 0.2 (0.5 μM) fold
9 | CN1CCC(C(=O)Nc2ccc(-c3ccccn3)nn2)CC1 | 1.7 ± 0.1 (0.5 μM) fold
10 | O=C(Nc1ccc(-c2ccccn2)nn1)c1ncccn1 | 1.5 ± 0.1 (0.5 μM) fold
11 | O=C(Nc1ccc(-c2ccccn2)nn1)c1cccnn1 | 1.9 ± 0.1 (0.5 μM) fold

same assay, conditions: 1 μM (concentration that reaches maximum activity), 24 hr, relative to DMSO controls

Row | SMILES | Fold increase for EAAT2 at indicated concentration (maximum activity)
12 | O=C(Nc1ccc(-c2ccccn2)nn1)c1cccc(Cl)c1 | 1.5 ± 0.1 (1 μM) fold
13 | O=C(Nc1ccc(-c2ccccn2)nn1)c1ccc(Cl)cc1 | 1.5 ± 0.2 (1 μM) fold

same assay, conditions: 2.5 μM (concentration that reaches maximum activity), 24 hr, relative to DMSO controls

Row | SMILES | Fold increase for EAAT2 at indicated concentration (maximum activity)
14 | c1ccc(-c2ccc(OCc3ncco3)nn2)nc1 | 1.9 ± 0.1 (2.5 μM) fold
15 | CN(C)CCOc1ccc(-c2ccccn2)nn1 | 2.9 ± 0.2 (2.5 μM) fold

same assay, conditions: 5 μM (concentration that reaches maximum activity), 24 hr, relative to DMSO controls

Row | SMILES | Fold increase for EAAT2 at indicated concentration (maximum activity)
16 | c1ccc(COc2ccc(-c3ccccn3)nn2)nc1 | 3.0 ± 0.1 (5 μM) fold
17 | O=C(Nc1ccc(-c2ccccn2)nn1)c1ccccc1Cl | 2.0 ± 0.2 (5 μM) fold
18 | CN(C)C(=O)COc1ccc(-c2ccccn2)nn1 | 2.9 ± 0.2 (5 μM) fold
19 | O=C(Nc1ccc(-c2ccccn2)nn1)c1cncs1 | 1.9 ± 0.1 (5 μM) fold
20 | Cn1cncc1COc1ccc(-c2ccccn2)nn1 | 1.7 ± 0.1 (5 μM) fold
21 | Cn1ccnc1COc1ccc(-c2ccccn2)nn1 | 1.9 ± 0.1 (5 μM) fold
22 | CC(Oc1ccc(-c2ccccn2)nn1)c1ccccn1 (centres unmarked) | 1.7 ± 0.1 (5 μM) fold
23 | CN(C)CCNc1ccc(-c2ccccn2)nn1 | 2.4 ± 0.2 (5 μM) fold
24 | c1ccc(-c2ccc(NCCCn3ccnc3)nn2)nc1 | 3.3 ± 0.2 (5 μM) fold

same assay, conditions: 10 μM (concentration that reaches maximum activity), 24 hr, relative to DMSO controls

Row | SMILES | Fold increase for EAAT2 at indicated concentration (maximum activity)
25 | O=C(Nc1ccc(-c2cccnc2)nn1)c1ccc(F)cc1 | 2.1 ± 0.2 (10 μM) fold
26 | Cn1cncc1C(=O)Nc1ccc(-c2ccccn2)nn1 | 1.8± 0.2 (10 μM) fold
27 | COc1ccc(C(=O)Nc2ccc(-c3ccccn3)nn2)cc1 | 2.1 ± 0.2 (10 μM) fold
28 | NC(=O)COc1ccc(-c2ccccn2)nn1 | 1.8 ± 0.2 (10 μM) fold
29 | Cc1ccccc1NC(=O)COc1ccc(-c2ccccn2)nn1 | 2.4 ± 0.2 (10 μM) fold
30 | CN(C(=O)COc1ccc(-c2ccccn2)nn1)c1ccccc1 | 2.2 ± 0.3 (10 μM) fold
31 | O=C(COc1ccc(-c2ccccn2)nn1)N1CCCCC1 | 2.6 ± 0.1 (10 μM) fold
32 | c1ccc(-c2ccc(OCc3nccs3)nn2)nc1 | 2.2 ± 0.3 (10 μM) fold
33 | c1ccc(CNc2ccc(-c3ccccn3)nn2)cc1 | 3.1 ± 0.3 (10 μM) fold
34 | CNC(=O)COc1ccc(-c2ccccn2)nn1 [drawing 130] | 1.8 ± 0.1 (10 μM) fold

test system: EAAT2; assay: EAAT2 expression in mouse brain after single oral dose (semi-quantitative Western blot); assay type: in vivo; settings: mice, single dose by oral gavage, brains harvested at 24 h post-treatment
Procedure: Mice received a single dose of the compound (n=3/dose) by oral gavage. Brains were harvested at 24 h post-treatment. EAAT2 protein levels were analyzed by semi-quantitative Western blot analysis.

Row | SMILES | EAAT2 protein levels in mouse brain
35 | O=C(Nc1ccc(-c2ccccn2)nn1)c1ccc(F)cc1 [Example 4, 4-Fluoro-N-(6-(pyridin-2-yl)pyridazin-3-yl)benzamide] | dose-dependently increased EAAT2 levels

From patent US10787433B2, “Pyridazine derivatives as EAAT2 activators” (THE BRIGHAM AND WOMEN'S HOSPITAL, INC., priority 2016, dated 2020)
